How the values were obtained:
[1] = test system: A172 glioblastoma cells; assay: Antibody-dependent cellular phagocytosis (ADCP) of A172 cells by U937 cells; type: cell-based, human; conditions: U937 effector cells, anti-DNP antibodies
Experimental: ADCP experiments carried out via a dual channel flow cytometry assay and were performed by measuring the % phagocytosis of A172 human glioblastoma cells by IFN-gamma primed U937 macrophage effector cells each stained with FL-1 and FL-4 dyes respectively giving rise to double positive FL-1 and FL-4 fluorescence shifts accompanying phagocytosis. These assays were performed in the presence and absence of exogenously added anti-DNP antibodies and various concentrations of each ARM-U2 derivative. Control experiments were also performed to confirm that cellular phagocytosis is occurring and is dependent on ARM-U2 binding cell surface uPAR by • 1. Performing out competitions with exogenous uPAR, • 2. Performing out-competitions with 6-ABT-4 which should bind uPAR but not anti-DNP antibodies • 3. Performing ADCP at 4 degrees Celsius where phagocytosis cannot occur and • 4. Amnis microscopic analysis of double positives identified in the ADCP assay to undergo 6-ABT-1 dependent phagocytosis.
IFNγ-primed U937 cells were stained with DiD dye (final concentration 1.9 μM) for 30 min at 37° C. A172 target cells were prepared by staining adherent cells with DiO dye (Invitrogen; final concentration 1.9 μM), and then nonenzymatically detaching the cells with 0.5 mM EDTA and EGTA. Cells were counted with trypan blue staining to verify cell viability. To measure phagocytosis, 2.5×10^4 target cells were suspended in 25 ul phenol-free low-IgG RPMI media to which 25 ul of 100 nM anti-DNP antibody (rabbit polyclonal KLH IgG, Invitrogen-100× stock) containing media was added followed by the addition of 1 ul of ARM-U2 from 100×DMSO stocks or 6-ABT-4 from 100×DMSO stocks for compound out-competition experiments, followed by the addition of 50 ul of 10^5 U937 cells in the same RPMI Assay Media resulting in a final volume of 100 uL. This experimental setup yielded an effector-to-target ratio (E:T ratios) of 4:1. For out-competition studies with exogenous uPAR, 250 ul of A-172 target cells in assay media was added directly to lyophilized 100 ug uPAR (R@D systems) to yield an 8.4 uM stock uPAR concentration, this was then combined in the manner and order described above. Eppendorfs were centrifuged at 200 rcf for 2 min then incubated at 37° C. for 1 hour or at 4° C. for 1 hr in controls establishing real phagocytosis is indeed represented by double positives in flow cytometry. Phagocytosis was halted by placing tubes on ice. […] The live cell population selected was further gated into four quadrants using dual FL-1 and FL-4 fluorescence enabling for the differentiation of effector only cells (top left quadrant-high FL-4), target only cells (bottom right quadrant-high FL-1 fluorescence), and double positive overlapping target and effector cells (top right quadrant-high FL-1 and FL-4 fluorescence). […]

[2] = molecular target: T1, uPAR (uPA binding site) (Homo sapiens, UniProt Q03405); assay: Competitive ELISA uPAR binding assay (immobilized urokinase)
T1 construct: purchased R&D systems
Experimental: The affinity of ARM-U2 derivatives differing in both the length of the DNP-linker substituted at position 2 of ring C and the display of negative charge density (FIG. 8, Table 1) for uPAR were assayed using a competitive ELISA binding assay. The assay involves the immobilization of urokinase, a natural high affinity ligand for uPAR followed by the addition of a fixed concentration of recombinant uPAR protein and increasing concentrations of ARM-U2 which competes with urokinase for binding to the uPA binding site of uPAR. Following several washing steps, the amount of uPAR bound is quantified by a biotinylated anti-uPAR antibody and avidin-HRP and can be fit to a competitive binding model allowing for the extraction of the uPAR/ARM-U2 Kd.
All ARM-U2 derivatives were assessed for their ability to bind selectively to recombinant uPAR in vitro using a competitive ELISA binding assay. DMSO stock solutions of each ARM-U2 derivative stored at −20° C. were titrated into wells pre-coated with human urokinase (isolated from human urine, ProSpec 1 mg/ml deI water 18.5 μM) in the presence of uPAR. Selective binding to uPAR by ARM-U2 at the uPA binding site competes with uPAR-uPA binding which is required for a positive UV 450 nm absorbance signal. Increasing concentrations of ARM-U2 displace increasing amounts of uPAR from uPA which is detected by anti-uPAR/biotin labeled antibodies followed by avidin-HRP. The sigmoidal binding isotherm of absorbance at 450 nm vs log ARM-U2 concentration can then by fit by non-linear regression analysis to obtain the IC50 for ARM-U2/uPAR binding (Equation S2) which can then be translated into a KI for ARM-U2/uPAR binding using a competitive binding model adapted from the Cheng-Prusoff equation relating KI to IC50 (Equation S3). The ELISA experiments were performed as followed: To Corning high binding 96 well flat bottom plates was added 100 μl/well of 100 nM urokinase in sterile PBS. The plates were sealed and left to incubate at 4° C. overnight. The plates were then washed 1× with 200 μl wash buffer (PBS+0.05% Tween-20) and 1× with 400 μl wash buffer. The plates were blotted on paper towel and blocked for 1 h shaking at room temp with 300 μl of a solution of thermo superblock in PBS per well. Molecule dilutions into solutions of a fixed concentration (10 nM) of uPAR were prepared in 0.025% triton-X/PBS on a separate low binding plate during the blocking hour. The plates were again washed followed by the addition of 100 μl of the ARM-U2/uPAR solution with 0.1% final DMSO concentration. The solutions were mixed by multichannel pipette, sealed, and incubated for 2 h with shaking at room temperature. The plates were then washed 1× with 200 μl wash buffer (PBS+0.05% Tween-20) and 2× with 400 μl wash buffer. The plates were blotted on a paper towel followed by the addition of 100 μl/well of a solution of biotinylated anti-uPAR antibody in 1% BSA/PBS. (R&D Systems, 3.3 μl taken from 50 μg/250 μl-1000× stock) and incubation with shaking for 1 h at room temp. The plates were washed 1× with 200 μl wash buffer and 2× with 400 μl wash buffer and blotted on a paper towel. 100 μl of avidin-HRP (stock −500× from e-bioscience) were added per well, incubated 20 min with shaking at room temp followed by washing 1× with 200 μl wash buffer and 3× with 400 μl wash buffer. The plates were blotted dry with paper towel and 100 μl of TMB substrate was added to each well. The emergence of blue color was monitored and the reaction quenched with the addition of 50 μl of 2M sulfuric acid to each well followed by measuring the absorbance at 450 nm using a fluorescence plate reader. […]

[3] = test system: B16 melanoma tumors expressing human uPAR; assay: B16 mouse melanoma allograft model expressing human uPAR; type: in vivo
Text: The inventors also examined the efficacy of ARM-U2 in a B16−uPAR mouse allograft model developed in our laboratory. Mice immunized to produce anti-DNP IgG antibodies containing tumors expressing human uPAR, received daily treatment via intraperitoneal (IP) injection and were monitored over the course of 42 days.

T1 sequence (Q03405 23-305): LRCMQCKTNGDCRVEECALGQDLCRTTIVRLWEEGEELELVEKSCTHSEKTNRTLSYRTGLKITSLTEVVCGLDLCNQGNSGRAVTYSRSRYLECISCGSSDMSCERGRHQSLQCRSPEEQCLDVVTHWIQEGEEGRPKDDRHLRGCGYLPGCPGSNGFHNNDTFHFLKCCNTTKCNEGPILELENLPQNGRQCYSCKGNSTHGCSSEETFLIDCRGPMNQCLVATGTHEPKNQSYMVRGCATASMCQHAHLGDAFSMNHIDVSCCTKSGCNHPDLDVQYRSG

| SMILES | ADCP efficacy and potency compared to 1-ABT-1 [1] | uPAR-binding affinity relative to parent ARM-U2 derivative 1-ABT-1 [2] | other results |
| --- | --- | --- | --- |
| O=C(O)CNC(=O)c1cccc(Nc2cc(N3CCC[C@H](C(=O)NCCCOCCOCCOCCCNc4ccc([N+](=O)[O-])cc4[N+](=O)[O-])C3)c3noc4c3c2C(=O)c2ccccc2-4)c1 [3-ABT-1] | no increase in efficacy or potency in ADCP | modest increase in affinity | – |
| COc1cccc2c1C(=O)c1c(O)c3c(c(O)c1C2=O)C[C@@](O)(C(=O)CO)C[C@@H]3O[C@H]1C[C@H](N)[C@H](O)[C@H](C)O1 [doxorubicin] | – | – | average tumor volume after 17 days ([3]; IP injections over 17 days): approximately 200 mm^3; mean survival ([3]; daily IP treatment): 27 days; tumor growth inhibition (TGI) ([3]; daily IP, ARM-U2 20 mpk or 100 mpk, Dox 1 mpk, vs PBS): comparable; persistence of tumor regression after treatment cessation ([3]; mouse, in vivo): ~14 days |
| O=C(O)c1cc(Nc2cc(N3CCC[C@H](C(=O)NCCCOCCOCCOCCCNc4ccc([N+](=O)[O-])cc4[N+](=O)[O-])C3)c3noc4c3c2C(=O)c2ccccc2-4)cc(C(=O)O)c1 [2-ABT-1] | no increase in efficacy or potency in ADCP | no increase in uPAR-binding affinity | – |
| O=C1c2ccccc2-c2onc3c(N4CCC[C@H](C(=O)NCCCOCCOCCOCCCNc5ccc([N+](=O)[O-])cc5[N+](=O)[O-])C4)cc(Nc4cccc(S(=O)(=O)O)c4)c1c23 [5-ABT-1] | no increase in % phagocytosis | no increase in uPAR-binding affinity | – |
| O=C(O)CNc1cccc(Nc2cc(N3CCC[C@H](C(=O)NCCCOCCOCCOCCCNc4ccc([N+](=O)[O-])cc4[N+](=O)[O-])C3)c3noc4c3c2C(=O)c2ccccc2-4)c1 [4-ABT-1] | no increase in efficacy or potency in ADCP | modest increase in affinity | – |
| Nc1c(N2CCCC(C(=O)NCCCOCCOCCOCCCNc3ccc([N+](=O)[O-])cc3[N+](=O)[O-])C2)cc(Nc2ccc(S(=O)(=O)O)cc2S(=O)(=O)O)c2c1C(=O)c1ccccc1C2=O (centres unmarked) [compound 23] | – | – | Ki ([2]; calculated from the ELISA IC50): 10 nM; IC50 ([2]; competition with immobilized uPA for uPAR): 63 nM |

Source: US10633374B2, “Small molecule based antibody-recruiting compounds for cancer treatment” (YALE UNIVERSITY, priority 2015, dated 2020)
